Laboratory results from the kinase profiling compilation of Christmann-Franck et al. (2016).

Legend:
Details in all cases: compound 10.0 µM
PIM1 (human) = PIM1 (human) (UniProt P11309)
SYK (human) = SYK (human) (UniProt P43405)
PHKG2 (human) = PHKG2 (human) (UniProt P15735)
MAP2K3 (human) = MAP2K3 (human) (UniProt P46734)
DCLK1 (human) = DCLK1 (human) (UniProt O15075)
TNK1 (human) = TNK1 (human) (UniProt Q13470)
EPHA1 (human) = EPHA1 (human) (UniProt P21709)
PRKACB (human) = PRKACB (human) (UniProt P22694)
PRKCD (human) = PRKCD (human) (UniProt Q05655)
TGFBR2 (human) = TGFBR2 (human) (UniProt P37173)
NEK9 (human) = NEK9 (human) (UniProt Q8TD19)
[1] = system: FLT3 (human), P36888 [R834Q]
PRKD3 (human) = PRKD3 (human) (UniProt O94806)
PRKD3 (human), sequence (O94806 whole entry, looked up): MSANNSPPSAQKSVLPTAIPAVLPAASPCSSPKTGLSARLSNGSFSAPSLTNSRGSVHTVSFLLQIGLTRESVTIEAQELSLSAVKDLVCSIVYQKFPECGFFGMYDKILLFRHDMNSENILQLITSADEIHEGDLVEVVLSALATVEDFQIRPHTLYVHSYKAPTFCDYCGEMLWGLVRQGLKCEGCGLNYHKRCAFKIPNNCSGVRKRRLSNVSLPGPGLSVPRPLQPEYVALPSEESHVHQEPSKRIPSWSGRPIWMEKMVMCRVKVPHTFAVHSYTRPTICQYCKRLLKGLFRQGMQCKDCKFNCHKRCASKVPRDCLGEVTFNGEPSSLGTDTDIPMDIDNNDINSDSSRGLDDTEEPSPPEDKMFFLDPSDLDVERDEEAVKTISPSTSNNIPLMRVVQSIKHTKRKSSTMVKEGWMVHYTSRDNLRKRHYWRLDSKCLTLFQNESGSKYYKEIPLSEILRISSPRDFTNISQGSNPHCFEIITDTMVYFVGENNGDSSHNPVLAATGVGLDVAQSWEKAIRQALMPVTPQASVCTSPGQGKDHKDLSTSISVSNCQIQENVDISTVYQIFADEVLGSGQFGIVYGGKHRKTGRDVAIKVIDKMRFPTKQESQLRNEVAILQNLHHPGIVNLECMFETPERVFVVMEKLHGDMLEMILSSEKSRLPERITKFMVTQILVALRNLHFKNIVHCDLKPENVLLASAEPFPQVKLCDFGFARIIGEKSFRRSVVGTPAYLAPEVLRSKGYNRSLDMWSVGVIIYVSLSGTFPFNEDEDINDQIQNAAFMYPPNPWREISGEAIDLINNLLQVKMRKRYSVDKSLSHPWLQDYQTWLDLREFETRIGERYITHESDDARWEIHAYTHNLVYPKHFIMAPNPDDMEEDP

CDK3 (human) = CDK3 (human) (UniProt Q00526)
CDK3 (human), sequence (Q00526 whole entry, looked up): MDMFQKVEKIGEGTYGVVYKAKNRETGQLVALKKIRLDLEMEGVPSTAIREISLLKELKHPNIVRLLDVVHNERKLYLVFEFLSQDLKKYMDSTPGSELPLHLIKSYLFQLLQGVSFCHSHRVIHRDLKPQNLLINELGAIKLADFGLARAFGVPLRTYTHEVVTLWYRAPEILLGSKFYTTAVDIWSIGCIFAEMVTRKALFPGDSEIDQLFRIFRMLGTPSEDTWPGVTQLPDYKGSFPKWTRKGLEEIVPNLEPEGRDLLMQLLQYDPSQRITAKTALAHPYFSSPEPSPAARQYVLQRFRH

LATS1 (human) = LATS1 (human) (UniProt O95835)
CDK18 (human) = CDK18 (human) (UniProt Q07002)
ACVR2B (human) = ACVR2B (human) (UniProt Q13705)
ERBB2 (human) = ERBB2 (human) (UniProt P04626)
STK16 (human) = STK16 (human) (UniProt O75716)
[2] = system: FLT3 (human), P36888 [ITD]
CSNK1D (human) = CSNK1D (human) (UniProt P48730)
GAK (human) = GAK (human) (UniProt O14976)
GAK (human), sequence (O14976 whole entry, looked up): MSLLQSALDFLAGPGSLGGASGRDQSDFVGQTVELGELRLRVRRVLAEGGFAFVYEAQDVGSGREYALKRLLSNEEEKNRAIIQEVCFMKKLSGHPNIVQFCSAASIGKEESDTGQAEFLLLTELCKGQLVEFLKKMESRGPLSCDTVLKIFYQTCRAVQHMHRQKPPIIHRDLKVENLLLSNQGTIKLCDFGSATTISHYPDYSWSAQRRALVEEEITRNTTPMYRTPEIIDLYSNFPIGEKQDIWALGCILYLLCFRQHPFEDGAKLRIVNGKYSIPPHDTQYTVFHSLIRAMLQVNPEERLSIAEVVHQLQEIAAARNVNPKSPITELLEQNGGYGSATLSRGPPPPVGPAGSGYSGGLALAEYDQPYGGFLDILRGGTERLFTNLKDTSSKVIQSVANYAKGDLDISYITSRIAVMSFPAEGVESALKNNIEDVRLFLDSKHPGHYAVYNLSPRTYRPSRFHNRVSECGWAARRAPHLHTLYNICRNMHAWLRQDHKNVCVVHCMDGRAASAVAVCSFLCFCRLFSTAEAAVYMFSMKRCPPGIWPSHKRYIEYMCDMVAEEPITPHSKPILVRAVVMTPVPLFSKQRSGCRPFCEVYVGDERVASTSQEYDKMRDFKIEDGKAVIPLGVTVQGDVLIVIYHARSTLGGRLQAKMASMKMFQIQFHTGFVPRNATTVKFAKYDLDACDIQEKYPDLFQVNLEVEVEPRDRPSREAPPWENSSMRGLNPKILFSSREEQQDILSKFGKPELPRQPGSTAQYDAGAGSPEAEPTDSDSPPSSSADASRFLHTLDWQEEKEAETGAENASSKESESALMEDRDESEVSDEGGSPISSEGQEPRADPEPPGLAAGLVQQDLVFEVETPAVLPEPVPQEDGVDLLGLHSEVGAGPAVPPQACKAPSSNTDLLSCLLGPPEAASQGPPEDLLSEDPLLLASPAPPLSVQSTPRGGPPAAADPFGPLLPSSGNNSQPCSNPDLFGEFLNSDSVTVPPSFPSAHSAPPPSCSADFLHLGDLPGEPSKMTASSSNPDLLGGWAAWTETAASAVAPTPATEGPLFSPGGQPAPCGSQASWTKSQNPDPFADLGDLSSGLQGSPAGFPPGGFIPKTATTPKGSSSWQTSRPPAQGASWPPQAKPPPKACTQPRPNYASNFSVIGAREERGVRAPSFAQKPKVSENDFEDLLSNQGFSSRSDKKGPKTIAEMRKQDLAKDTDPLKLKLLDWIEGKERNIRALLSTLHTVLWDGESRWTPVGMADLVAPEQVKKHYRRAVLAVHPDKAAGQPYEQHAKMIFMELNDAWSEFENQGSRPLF

[3] = biological target: TYK2 JH2 pseudokinase (human) (UniProt P29597)
RPS6KA3 KD1 (human) = RPS6KA3 KD1 (human) (UniProt P51812)
TTK (human) = TTK (human) (UniProt P33981)
CDC42BPG (human) = CDC42BPG (human) (UniProt Q6DT37)
CSK (human) = CSK (human) (UniProt P41240)
MAPK13 (human) = MAPK13 (human) (UniProt O15264)
NEK4 (human) = NEK4 (human) (UniProt P51957)
MAP4K4 (human) = MAP4K4 (human) (UniProt O95819)
MAP4K4 (human), sequence (O95819 whole entry, looked up): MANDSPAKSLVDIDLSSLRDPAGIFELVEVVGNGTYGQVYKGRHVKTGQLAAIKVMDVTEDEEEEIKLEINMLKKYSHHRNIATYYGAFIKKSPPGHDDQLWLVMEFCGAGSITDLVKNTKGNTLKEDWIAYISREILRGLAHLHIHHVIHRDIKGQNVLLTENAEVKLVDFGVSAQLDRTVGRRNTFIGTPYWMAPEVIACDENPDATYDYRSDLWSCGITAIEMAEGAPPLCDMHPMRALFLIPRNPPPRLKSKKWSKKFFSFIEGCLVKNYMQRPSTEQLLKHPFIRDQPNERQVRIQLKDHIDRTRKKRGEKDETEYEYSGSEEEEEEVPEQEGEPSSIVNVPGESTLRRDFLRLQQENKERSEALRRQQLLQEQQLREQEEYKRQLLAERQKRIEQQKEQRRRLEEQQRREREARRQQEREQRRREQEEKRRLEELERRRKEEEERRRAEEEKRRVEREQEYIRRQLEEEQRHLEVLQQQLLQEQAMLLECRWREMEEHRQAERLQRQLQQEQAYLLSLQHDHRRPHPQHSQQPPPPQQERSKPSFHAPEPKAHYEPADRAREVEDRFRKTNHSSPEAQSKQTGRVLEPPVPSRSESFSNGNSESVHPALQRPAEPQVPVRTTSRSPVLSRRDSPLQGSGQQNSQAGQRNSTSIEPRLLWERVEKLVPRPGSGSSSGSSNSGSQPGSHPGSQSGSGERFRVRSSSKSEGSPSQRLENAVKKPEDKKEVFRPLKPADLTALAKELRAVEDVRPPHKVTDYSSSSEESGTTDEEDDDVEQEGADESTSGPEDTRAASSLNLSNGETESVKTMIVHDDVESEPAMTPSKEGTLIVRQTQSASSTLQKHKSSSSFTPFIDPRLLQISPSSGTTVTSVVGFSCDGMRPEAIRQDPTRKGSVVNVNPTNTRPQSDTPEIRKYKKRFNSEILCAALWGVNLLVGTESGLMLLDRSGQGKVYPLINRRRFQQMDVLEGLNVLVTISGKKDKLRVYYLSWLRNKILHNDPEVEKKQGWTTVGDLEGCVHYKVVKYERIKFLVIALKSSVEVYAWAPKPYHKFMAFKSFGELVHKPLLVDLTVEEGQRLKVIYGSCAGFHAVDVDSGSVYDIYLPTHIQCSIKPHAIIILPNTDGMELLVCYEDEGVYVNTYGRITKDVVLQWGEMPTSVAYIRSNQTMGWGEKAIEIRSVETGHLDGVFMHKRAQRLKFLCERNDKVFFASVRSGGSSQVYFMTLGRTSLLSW

NEK6 (human) = NEK6 (human) (UniProt Q9HC98)
[4] = system: FGFR3 (human), P22607 [G697C]
FGFR3 (human), P22607 [G697C], sequence (P22607 whole entry G697C, looked up): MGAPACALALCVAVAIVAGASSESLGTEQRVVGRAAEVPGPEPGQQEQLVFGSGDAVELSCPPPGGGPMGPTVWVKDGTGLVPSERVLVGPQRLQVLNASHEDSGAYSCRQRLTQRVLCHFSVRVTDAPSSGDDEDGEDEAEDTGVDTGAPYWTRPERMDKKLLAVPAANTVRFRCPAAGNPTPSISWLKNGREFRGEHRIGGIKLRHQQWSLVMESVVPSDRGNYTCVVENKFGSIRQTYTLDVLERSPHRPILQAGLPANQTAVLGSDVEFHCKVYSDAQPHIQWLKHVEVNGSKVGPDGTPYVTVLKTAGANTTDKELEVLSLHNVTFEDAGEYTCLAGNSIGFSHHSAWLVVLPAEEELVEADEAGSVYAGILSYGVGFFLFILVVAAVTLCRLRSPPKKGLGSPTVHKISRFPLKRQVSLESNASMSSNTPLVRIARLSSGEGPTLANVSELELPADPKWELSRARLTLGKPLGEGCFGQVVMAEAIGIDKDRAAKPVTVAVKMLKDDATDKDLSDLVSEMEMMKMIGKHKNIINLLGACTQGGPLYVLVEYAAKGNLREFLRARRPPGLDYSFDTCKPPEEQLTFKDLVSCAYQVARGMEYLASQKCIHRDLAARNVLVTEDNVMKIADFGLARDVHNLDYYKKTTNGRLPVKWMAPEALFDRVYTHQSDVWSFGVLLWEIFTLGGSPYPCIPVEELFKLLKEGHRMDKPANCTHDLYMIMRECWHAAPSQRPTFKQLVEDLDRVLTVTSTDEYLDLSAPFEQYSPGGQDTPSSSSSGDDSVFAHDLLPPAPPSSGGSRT

ERBB3 (human) = ERBB3 (human) (UniProt P21860)
MAP3K9 (human) = MAP3K9 (human) (UniProt P80192)
PRKG2 (human) = PRKG2 (human) (UniProt Q13237)
HUNK (human) = HUNK (human) (UniProt P57058)
SGK3 (human) = SGK3 (human) (UniProt Q96BR1)
SGK3 (human), sequence (Q96BR1 whole entry, looked up): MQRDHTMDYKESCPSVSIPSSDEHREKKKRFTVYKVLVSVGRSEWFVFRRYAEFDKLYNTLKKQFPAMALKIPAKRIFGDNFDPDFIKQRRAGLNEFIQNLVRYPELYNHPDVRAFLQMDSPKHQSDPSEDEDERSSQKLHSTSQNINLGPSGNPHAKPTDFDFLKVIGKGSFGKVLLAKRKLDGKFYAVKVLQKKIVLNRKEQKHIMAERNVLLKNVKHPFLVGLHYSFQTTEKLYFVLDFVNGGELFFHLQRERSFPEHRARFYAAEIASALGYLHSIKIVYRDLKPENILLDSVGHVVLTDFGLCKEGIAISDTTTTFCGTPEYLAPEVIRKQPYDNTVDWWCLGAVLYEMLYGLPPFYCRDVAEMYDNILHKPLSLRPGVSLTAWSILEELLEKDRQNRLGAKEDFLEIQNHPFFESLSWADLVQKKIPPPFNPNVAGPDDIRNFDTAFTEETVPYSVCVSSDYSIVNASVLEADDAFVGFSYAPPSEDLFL

MAPK11 (human) = MAPK11 (human) (UniProt Q15759)
STK25 (human) = STK25 (human) (UniProt O00506)
SIK2 (human) = SIK2 (human) (UniProt Q9H0K1)
LYN (human) = LYN (human) (UniProt P07948)
PRKD2 (human) = PRKD2 (human) (UniProt Q9BZL6)

CNC(=O)c1cc(Oc2ccc(NC(=O)Nc3ccc(Cl)c(C(F)(F)F)c3)cc2)cc[n+]1[O-]
per cent of control (PIM1 (human)): 100% | per cent of control (SYK (human)): 89% | per cent of control (PHKG2 (human)): 100% | per cent of control (MAP2K3 (human)): 71% | per cent of control (DCLK1 (human)): 53% | per cent of control (TNK1 (human)): 6.6% | per cent of control (EPHA1 (human)): 18% | per cent of control (PRKACB (human)): 98% | per cent of control (PRKCD (human)): 100% | per cent of control (TGFBR2 (human)): 3.1% | per cent of control (NEK9 (human)): 35% | per cent of control [1]: 9% | per cent of control (PRKD3 (human)): 83% | per cent of control (CDK3 (human)): 13% | per cent of control (LATS1 (human)): 53% | per cent of control (CDK18 (human)): 26% | per cent of control (ACVR2B (human)): 22% | per cent of control (ERBB2 (human)): 100% | per cent of control (STK16 (human)): 81% | per cent of control [2]: 0.4% | per cent of control (CSNK1D (human)): 91% | per cent of control (GAK (human)): 70% | per cent of control [3]: 99% | per cent of control (RPS6KA3 KD1 (human)): 52% | per cent of control (TTK (human)): 9% | per cent of control (CDC42BPG (human)): 86% | per cent of control (CSK (human)): 1% | per cent of control (MAPK13 (human)): 0.55% | per cent of control (NEK4 (human)): 93% | per cent of control (MAP4K4 (human)): 0.5% | per cent of control (NEK6 (human)): 100% | per cent of control [4]: 50% | per cent of control (ERBB3 (human)): 62% | per cent of control (MAP3K9 (human)): 100% | per cent of control (PRKG2 (human)): 100% | per cent of control (HUNK (human)): 74% | per cent of control (SGK3 (human)): 42% | per cent of control (MAPK11 (human)): 0% | per cent of control (STK25 (human)): 32% | per cent of control (SIK2 (human)): 66% | per cent of control (LYN (human)): 11% | per cent of control (PRKD2 (human)): 83%

CNC(=O)c1cc(Oc2ccc(NC(=O)Nc3ccc(Cl)c(C(F)(F)F)c3)cc2)ccn1
per cent of control (PIM1 (human)): 100% | per cent of control (SYK (human)): 77% | per cent of control (PHKG2 (human)): 100% | per cent of control (MAP2K3 (human)): 93% | per cent of control (DCLK1 (human)): 62% | per cent of control (TNK1 (human)): 14% | per cent of control (EPHA1 (human)): 11% | per cent of control (PRKACB (human)): 100% | per cent of control (PRKCD (human)): 100% | per cent of control (TGFBR2 (human)): 25% | per cent of control (NEK9 (human)): 48% | per cent of control [1]: 12% | per cent of control (PRKD3 (human)): 70% | per cent of control (CDK3 (human)): 41% | per cent of control (LATS1 (human)): 79% | per cent of control (CDK18 (human)): 57% | per cent of control (ACVR2B (human)): 68% | per cent of control (ERBB2 (human)): 100% | per cent of control (STK16 (human)): 94% | per cent of control [2]: 0.5% | per cent of control (CSNK1D (human)): 84% | per cent of control (GAK (human)): 62% | per cent of control [3]: 93% | per cent of control (RPS6KA3 KD1 (human)): 99% | per cent of control (TTK (human)): 15% | per cent of control (CDC42BPG (human)): 84% | per cent of control (CSK (human)): 52% | per cent of control (MAPK13 (human)): 21% | per cent of control (NEK4 (human)): 100% | per cent of control (MAP4K4 (human)): 8.7% | per cent of control (NEK6 (human)): 100% | per cent of control [4]: 25% | per cent of control (ERBB3 (human)): 70% | per cent of control (MAP3K9 (human)): 100% | per cent of control (PRKG2 (human)): 100% | per cent of control (HUNK (human)): 90% | per cent of control (SGK3 (human)): 72% | per cent of control (MAPK11 (human)): 0.05% | per cent of control (STK25 (human)): 100% | per cent of control (SIK2 (human)): 74% | per cent of control (LYN (human)): 11% | per cent of control (PRKD2 (human)): 100%
